# Test results from patent publication US20240158392A1 (Janssen Biotech, Inc., priority 2021, published 2024).
# Biological target: SIK2 (Homo sapiens, UniProt Q9H0K1)
# Assay: SIK2 Enzymatic Assay High Version 2 (High ATP)
# Type: biochemical
# Settings: not given
# In short: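 At room temperature, enzyme (6 nM, 2× final) was preincubated with compound for 30 min, then 6 mM ATP and 400 μM HDAC5tide (both 2× final) were added for 2 h. ADP formed was measured by ADP-Glo Max (2 h reagent, 1 h detection) using luminescence.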
# SIK2, sequence (Q9H0K1 whole entry, species assumed): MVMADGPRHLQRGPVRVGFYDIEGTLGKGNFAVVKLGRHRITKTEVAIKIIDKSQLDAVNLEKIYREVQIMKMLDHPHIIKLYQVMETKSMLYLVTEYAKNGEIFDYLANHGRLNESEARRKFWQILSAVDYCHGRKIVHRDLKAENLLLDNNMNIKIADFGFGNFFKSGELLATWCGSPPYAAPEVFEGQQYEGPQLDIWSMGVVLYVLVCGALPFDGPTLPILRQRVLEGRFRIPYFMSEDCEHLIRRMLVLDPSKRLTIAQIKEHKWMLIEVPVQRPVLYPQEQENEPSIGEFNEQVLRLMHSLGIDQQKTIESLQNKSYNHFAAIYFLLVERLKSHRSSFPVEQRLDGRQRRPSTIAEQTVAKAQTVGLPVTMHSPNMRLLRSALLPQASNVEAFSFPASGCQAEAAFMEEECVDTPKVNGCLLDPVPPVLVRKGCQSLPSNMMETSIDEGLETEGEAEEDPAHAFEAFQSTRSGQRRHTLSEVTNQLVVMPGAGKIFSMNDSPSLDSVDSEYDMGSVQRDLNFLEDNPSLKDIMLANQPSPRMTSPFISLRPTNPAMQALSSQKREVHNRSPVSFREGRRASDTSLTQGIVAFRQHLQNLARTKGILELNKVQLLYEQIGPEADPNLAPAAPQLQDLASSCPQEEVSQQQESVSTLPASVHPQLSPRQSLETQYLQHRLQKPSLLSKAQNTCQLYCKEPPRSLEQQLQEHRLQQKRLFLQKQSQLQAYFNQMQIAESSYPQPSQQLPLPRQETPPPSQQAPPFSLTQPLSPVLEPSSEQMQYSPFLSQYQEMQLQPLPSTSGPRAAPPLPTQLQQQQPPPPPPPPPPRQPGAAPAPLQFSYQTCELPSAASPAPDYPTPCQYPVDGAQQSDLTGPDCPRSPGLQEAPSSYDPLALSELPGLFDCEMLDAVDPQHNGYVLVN
row,SMILES,IC50
1,"Cc1cnc(Nc2cc3cc(-c4cc(C)ncc4O[C@@H]4[C@@H]5CO[C@H]4CN5)ccn3n2)cn1 [Example 528, 5-[2-methyl-5-[[(1S,4S,7R)-2-oxa-5-azabicyclo[2.2.1]heptan-7-yl]oxy]-4-pyridyl]-N-(5-methylpyrazin-2-yl)pyrazolo[1,5-a]pyridin-2-amine]",0.0642 µM
2,"Cc1cc(-c2ccn3nc(NC(=O)C4CC4)cc3c2)c(OC[C@H]2CCN2C)cn1 [Example 468, N-[5-[2-methyl-5-[[(2R)-1-methylazetidin-2-yl]methoxy]-4-pyridyl]pyrazolo[1,5-a]pyridin-2-yl]cyclopropanecarboxamide]",0.00813 µM
3,"CCN1[C@@H]2COC[C@H]1C[C@@H](Oc1cnc(C)cc1-c1ccn3nc(Nc4ccc(C(=O)NC)cn4)cc3c1)C2 [Example 530, 6-[[5-[5-[[(1S,5R)-9-ethyl-3-oxa-9-azabicyclo[3.3.1]nonan-7-yl]oxy]-2-methyl-4-pyridyl]pyrazolo[1,5-a]pyridin-2-yl]amino]-N-methyl-pyridine-3-carboxamide]",0.00236 µM
4,"Cc1cc(-c2ccn3nc(NC(=O)C4CC4)cc3c2)c(OC[C@@H]2CCN2)cn1 [Example 526, N-[5-[5-[[(2S)-azetidin-2-yl]methoxy]-2-methyl-4-pyridyl]pyrazolo[1,5-a]pyridin-2-yl]cyclopropanecarboxamide]",0.0198 µM
5,"Cc1cc(-c2ccn3nc(Nc4cn(CC(C)(C)O)nc4C(=O)C(F)(F)F)cc3c2)c(O[C@H]2C[C@H]3COC[C@@H](C2)N3)cn1 [Example 122, 1-(4-((5-(5-(((1R,5S,7s)-3-oxa-9-azabicyclo[3.3.1]nonan-7-yl)oxy)-2-methylpyridin-4-yl)pyrazolo[1,5-a]pyridin-2-yl)amino)-1-(2-hydroxy-2-methylpropyl)-1H-pyrazol-3-yl)-2,2,2-trifluoroethan-1-one]",2.43 µM
6,"Cc1cc(-c2ccn3nc(Nc4cc(C)nc(C)n4)cc3c2)c(OC[C@@H]2CCN2C)cn1 [Example 521, N-(2,6-dimethylpyrimidin-4-yl)-5-[2-methyl-5-[[(2S)-1-methylazetidin-2-yl]methoxy]-4-pyridyl]pyrazolo[1,5-a]pyridin-2-amine]",0.0607 µM
7,"Cc1cc(-c2ccn3nc(Nc4cnccn4)cc3c2)c(O[C@H]2C[C@H]3COC[C@@H](C2)N3C)cn1 [Example 418, 5-[2-methyl-5-[[(1S,5R,7s)-9-methyl-3-oxa-9-azabicyclo[3.3.1]nonan-7-yl]oxy]-4-pyridyl]-N-pyrazin-2-yl-pyrazolo[1,5-a]pyridin-2-amine]",< 0.000847 µM
8,Cc1cc(-c2ccn3nc(Nc4cnn(CC(C)(C)O)c4)cc3c2)c(O[C@H]2C[C@H]3COC[C@@H](C2)N3)cn1 [Example 121],0.00116 µM
9,"Cc1cc(-c2ccn3nc(Nc4cn(C)nc4F)cc3c2)c(O[C@H]2C[C@H]3COC[C@@H](C2)N3)cn1 [Example 398, N-(3-fluoro-1-methyl-pyrazol-4-yl)-5-[2-methyl-5-[[(1S,5R,7s)-3-oxa-9-azabicyclo[3.3.1]nonan-7-yl]oxy]-4-pyridyl]pyrazolo[1,5-a]pyridin-2-amine]",< 0.000847 µM

# Same assay, conditions: enzyme 6 nM, 6 mM ATP and 400 μM HDAC5tide (each 2× final concentration); 30 minutes pre-incubation, 2 hours; ADP-Glo Max luminescence; read-out: SIK2 high ATP IC50 (μM) (Test Example 2)
row,IC50,SMILES
1,0.0251 µM,"Cc1cc(-c2ccn3nc(NC(=O)C4CC4)cc3c2)c(OC[C@]2(F)CCN(C)C2)cn1 (single isomer, unassigned) [Example 519, (*S)—N-[5-[5-[(3-fluoro-1-methyl-pyrrolidin-3-yl)methoxy]-2-methyl-4-pyridyl]pyrazolo[1,5-a]pyridin-2-yl]cyclopropanecarboxamide]"
2,0.0134 µM,"Cc1cc(-c2ccn3nc(NC(=O)C4CC4)cc3c2)c(OC[C@@H](O)C(F)(F)F)cn1 (single isomer, unassigned) [Example 454, (*R)—N-[5-[2-methyl-5-[(2R)-3,3,3-trifluoro-2-hydroxy-propoxy]-4-pyridyl]pyrazolo[1,5-a]pyridin-2-yl]cyclopropanecarboxamide]"
3,0.0391 µM,"CNc1nc(C)cc(Nc2cc3cc(-c4cc(Cl)ncc4OCC(C)(C)C#N)ccn3n2)n1 [Example 675, 3-[[6-chloro-4-[2-[[6-methyl-2-(methylamino)pyrimidin-4-yl]amino]pyrazolo[1,5-a]pyridin-5-yl]-3-pyridyl]oxy]-2,2-dimethyl-propanenitrile]"
4,0.00839 µM,"Cc1cc(-c2ccn3nc(Nc4cc(C)nc(C)n4)cc3c2)c(OC[C@H]2CCC3(CCCC3)O2)cn1 (single isomer, unassigned) [Example 231, (*R)—N-(2,6-dimethylpyrimidin-4-yl)-5-[2-methyl-5-(9-oxaspiro[4.4]nonan-8-ylmethoxy)-4-pyridyl]pyrazolo[1,5-a]pyridin-2-amine]"
5,0.0218 µM,"Cc1cc(Nc2cc3cc(-c4cc(C)ncc4OCC(C)(C)O)ccn3n2)nc(C(=O)N(C)C)c1 [Example 244, 6-[[5-[5-(2-hydroxy-2-methyl-propoxy)-2-methyl-4-pyridyl]pyrazolo[1,5-a]pyridin-2-yl]amino]-N,N,4-trimethyl-pyridine-2-carboxamide]"
6,0.0101 µM,"Cc1cc(-c2ccn3nc(Nc4cc(C)nc(C)n4)cc3c2)c(OCc2ccccc2OC(F)F)cn1 [Example 553, 5-[5-[[2-(difluoromethoxy)phenyl]methoxy]-2-methyl-4-pyridyl]-N-(2,6-dimethylpyrimidin-4-yl)pyrazolo[1,5-a]pyridin-2-amine]"
7,0.00986 µM,"Cc1cc(-c2ccn3nc(Nc4ccn(C(C)C)n4)cc3c2)c(OC[C@@H]2CNCCO2)cn1 [Example 135, N-(1-isopropylpyrazol-3-yl)-5-[2-methyl-5-[[(2S)-morpholin-2-yl]methoxy]-4-pyridyl]pyrazolo[1,5-a]pyridin-2-amine]"
8,0.166 µM,COc1cc(Nc2cc3cc(-c4cc(C)ncc4O[C@H]4CC[C@H](O)CC4)ccn3n2)cc(F)c1C(=O)NC1CC1 [Example 649]
9,0.00331 µM,"Cc1cc(-c2ccn3nc(Nc4cc(C)nc(C)n4)cc3c2)c(OC[C@](C)(N)C(F)(F)F)cn1 (racemic) [Example 267, (rac-)-5-[5-(2-amino-3,3,3-trifluoro-2-methyl-propoxy)-2-methyl-4-pyridyl]-N-(2,6-dimethylpyrimidin-4-yl)pyrazolo[1,5-a]pyridin-2-amine]"
10,0.0018 µM,"COc1ccnc(Nc2cc3cc(-c4cc(OC(F)F)ncc4OCC(C)(C)C#N)ccn3n2)n1 [Example 698, 3-[[6-(difluoromethoxy)-4-[2-[(4-methoxypyrimidin-2-yl)amino]pyrazolo[1,5-a]pyridin-5-yl]-3-pyridyl]oxy]-2,2-dimethyl-propanenitrile]"
11,0.0766 µM,"Cc1cc(Nc2cc3cc(-c4cc(OCC(F)F)ncc4OCC(C)(C)C#N)ccn3n2)nn(C)c1=O [Example 693, 3-[[6-(2,2-difluoroethoxy)-4-[2-[(1,5-dimethyl-6-oxo-pyridazin-3-yl)amino]pyrazolo[1,5-a]pyridin-5-yl]-3-pyridyl]oxy]-2,2-dimethyl-propanenitrile]"
12,0.00301 µM,"Cc1cc(-c2ccn3nc(Nc4cc(C)c(C(=O)NC5CC5)c(C)n4)cc3c2)c(O[C@H]2CC[C@H](O)CC2)cn1 [Example 334, N-cyclopropyl-6-[[5-[5-(4-hydroxycyclohexoxy)-2-methyl-4-pyridyl]pyrazolo[1,5-a]pyridin-2-yl]amino]-2,4-dimethyl-pyridine-3-carboxamide]"
13,0.00877 µM,"Cc1cc(-c2ccn3nc(Nc4cc(C)nc(C)n4)cc3c2)c(O[C@H]2CC[C@H](O)CC2)cn1 [Example 198, trans-4-[[4-[2-[(2,6-dimethylpyrimidin-4-yl)amino]pyrazolo[1,5-a]pyridin-5-yl]-6-methyl-3-pyridyl]oxy]cyclohexanol]"
14,0.0032 µM,"CC#Cc1cc(-c2ccn3nc(NC(=O)C4CC4)cc3c2)c(O[C@H]2CCNC2)cn1 [Example 280, N-[5-[2-prop-1-ynyl-5-[(3S)-pyrrolidin-3-yl]oxy-4-pyridyl]pyrazolo[1,5-a]pyridin-2-yl]cyclopropanecarboxamide]"
15,0.00163 µM,"O=C(Nc1cc2cc(-c3cc(OC(F)F)ncc3O[C@H]3CC[C@H](O)CC3)ccn2n1)C1CC1 [Example 723, N-[5-[2-(difluoromethoxy)-5-(4-hydroxycyclohexoxy)-4-pyridyl]pyrazolo[1,5-a]pyridin-2-yl]cyclopropanecarboxamide]"
16,0.00407 µM,"Cc1cc(-c2ccn3nc(Nc4cc(C)nc(C)n4)cc3c2)c(OC[C@H]2OCC[C@@H]2O)cn1 [Example 218, (2R,3S)-2-[[4-[2-[(2,6-dimethylpyrimidin-4-yl)amino]pyrazolo[1,5-a]pyridin-5-yl]-6-methyl-3-pyridyl]oxymethyl]tetrahydrofuran-3-ol]"
17,0.0821 µM,"Cc1cncc(Nc2cc3cc(-c4cc(OCC(F)F)ncc4OCC(C)(C)C#N)ccn3n2)n1 [Example 696, 3-[[6-(2,2-difluoroethoxy)-4-[2-[(6-methylpyrazin-2-yl)amino]pyrazolo[1,5-a]pyridin-5-yl]-3-pyridyl]oxy]-2,2-dimethyl-propanenitrile]"
18,0.0431 µM,"Cc1cnc(OC[C@@H]2CNCCO2)c(-c2ccn3nc(NC(=O)C4CC4)cc3c2)c1 [Example 474, N-[5-[5-methyl-2-[[(2S)-morpholin-2-yl]methoxy]-3-pyridyl]pyrazolo[1,5-a]pyridin-2-yl]cyclopropanecarboxamide]"
19,0.0295 µM,"Cc1cc(-c2ccn3nc(Nc4cc(C)nc(C(=O)NC5CC5)n4)cc3c2)c(OCC(C)(C)O)cn1 [Example 640, N-cyclopropyl-4-[[5-[5-(2-hydroxy-2-methyl-propoxy)-2-methyl-4-pyridyl]pyrazolo[1,5-a]pyridin-2-yl]amino]-6-methyl-pyrimidine-2-carboxamide]"
20,0.0366 µM,"Cc1cc(Nc2cc3cc(-c4cc(CF)ncc4OCC(C)(C)O)ccn3n2)nc(C)n1 [Example 327, 1-[[4-[2-[(2,6-dimethylpyrimidin-4-yl)amino]pyrazolo[1,5-a]pyridin-5-yl]-6-(fluoromethyl)-3-pyridyl]oxy]-2-methyl-propan-2-ol]"
21,0.0297 µM,"Cc1cc(-c2cn3cc(Nc4cc(C)nc(C)n4)nc3cn2)c(O[C@H]2CC[C@H](O)CC2)cn1 [Example 507, 4-[[4-[2-[(2,6-dimethylpyrimidin-4-yl)amino]imidazo[1,2-a]pyrazin-6-yl]-6-methyl-3-pyridyl]oxy]cyclohexanol]"
